Assay results published in patent US20240033244A1, “COMPOSITIONS AND METHODS FOR INHIBITING YTHDF1” (SHANGHAI INSTITUTE OF MATERIA MEDICA, CHINESE ACADEMY OF …, priority 2020, published 2024).

What was measured:
YTHDF1 (361-559) [1] = molecular target: T1, YTHDF1 (361-559) (Homo sapiens, UniProt Q9BYJ9); assay: Isothermal Titration Calorimetry (ITC); assay type: binding; conditions: 25° C.
T1 construct: GST (N, cleaved yes); made in house; host or cells: E. coli BL21 (DE3)
T1 sequence (Q9BYJ9 with tags, fused parts or gaps): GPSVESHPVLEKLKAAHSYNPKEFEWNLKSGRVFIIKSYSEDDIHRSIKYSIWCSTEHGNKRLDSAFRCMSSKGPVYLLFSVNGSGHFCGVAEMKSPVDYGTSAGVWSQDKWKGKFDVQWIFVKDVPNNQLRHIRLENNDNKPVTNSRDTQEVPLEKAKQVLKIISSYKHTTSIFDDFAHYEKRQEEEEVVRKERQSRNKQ
Method: Purified YTHDF1 (361-559) was dialyzed at 4° C. overnight in dialysis buffer (20 mM Hepes (pH 7.4) and 200 mM NaCl). Then dialyzed protein was diluted to 50 μM with dialysis buffer. […] Isothermal titration calorimetry (ITC) was conducted on a Microcal ITC 200 isothermal titration calorimeter (GE Healthcare) at 25° C. 200 μL 50 μM YTHDF1 (361-559) was filled in the sample cell and constantly stirred at 750 rpm; 40 μL 1 mM SAA was filled in the syringe. […] Then in order to make the titration effect more obvious, the nineteen […] injections were changed after calculation into five 2.5 μL injections followed by fourteen 1.9 μL injections. […] The experimental data was analyzed via Microcal ORIGIN (v7.0) software (Microcal Software).
Then, the binding affinity between SAA and YTHDF1 was evaluated. The Isothermal Titration Calorimetry (ITC) assay was performed to accurately test the equilibrium dissociation constants (Kd) between YTHDF1 and SAA. The ITC assay was conducted on a Microcal iTC200 isothermal titration calorimeter (GE Healthcare) for three times independently. Briefly, freshly purified YTHDF1 (50 μM) was titrated with 1 mM SAA at 25° C. in a buffer comprising 20 mM Hepes (pH 7.4) and 200 mM NaCl.

YTHDF1 (361-559) [2] = molecular target: T1, YTHDF1 (361-559); assay: Microscale thermophoresis (MST) assay; assay type: binding
Method: Microscale Thermophoresis (MST) assay was performed on MiscroScale Thermophoresis instrument (NanoTemper Technologies) at room temperature using the label-free method. […] And the YTHDF1 (361-559) was diluted to 4 μM with MST buffer. […] Before measuring, the mixture was centrifuged at 13000 rpm for 10 minutes at 4° C. At last, the samples were collected by Monolith NT™ Automated Label Free capillaries (NanoTemper Technologies) and the measurement was started. […] Affinity Analysis Software v2.3 (NanoTemper Technologies).

YTHDF1 mutant H528A = molecular target: T2, YTHDF1 mutant H528A (Homo sapiens, UniProt Q9BYJ9, H528A); assay: FP assay with YTHDF1 mutant H528A; assay type: binding
T2 construct: GST (N, cleaved yes); made in house; host or cells: E. coli BL21 (DE3)
Method: The protein YTHDF1 (361-559) (SEQ ID NO: 2) and its mutants (SEQ ID NOs: 4-13) were cloned into pGEx-6P-1 vector (obtained from YouBio Co, Ltd, Catalog NO: VT1258), and the His-YTHDF1 (361-559) (SEQ ID NO: 3) used in AlphaScreen Assay was cloned into modified pET28a vector (obtained from YouBio Co, Ltd, Catalog NO: VT1207). The vectors were transformed into E. coli BL21 (DE3) cells and cultured at 37° C. When OD value reached 0.6˜0.8, 1 mM Isopropyl-β-D-thiogalactopyranoside was added to overexpress the protein at 16° C. overnight. […] Then, the proteins were further purified via cation exchange (HiTrap SP, GE Healthcare) and finally through a Superdex 75 10/300 column (GE Healthcare). At last, the purified YTHDF1(361-559) and the mutants were kept in buffer which contains 20 mM Hepes (pH 7.4) and 200 mM NaCl. For His-YTHDF1 (361-559), the protein was purified via Ni-NTA chromatography (HisTrap FF, GE Healthcare), followed by cation exchange and Superdex 75 10/300 column in sequence. And the obtained protein was kept in the buffer with the same ingredients.
All of the YTHDF1 (361-559), the 5′-FAM labeled m^6A-containing mRNA (5′-FAM-[…] (m^6A) CUGUG-3′, SEQ ID NO: 14) and the candidate compounds were diluted with assay buffer (20 mM Hepes (pH 7.4), 50 mM NaCl, 0.01% (v/v) tween 20, 5% (v/v) glycerol). […] At last, the mixtures were measured by Envision Readers (PerkinElmer). […]

B16-OVA tumor cells = assay: B16-OVA tumor cell proliferation in vitro; assay type: cell-based, mouse; conditions: 5×10^4 B16-OVA cells, various doses, 12 hours
Method: In a further experiment, tumor cells were treated with SAA in vitro. Briefly, 5×10^4 B16-OVA tumor cells were treated with SAA of various doses respectively in a 96-well plate. Cell number was counted 12 hours after said SAA treatment.

[3] = tested on: tumor infiltrating T cells; assay: Tumor infiltrating T cell function (PMA/ionomycin, intracellular staining); assay type: in vivo, mouse; conditions: B16-OVA bearing mice, PMA and ionomycin stimulation
Method: Tumor infiltrating leukocytes were resuspended by RPMI 1640 medium at 5×10^6 per mL in 96-well plates. Phorbol-12-myristate-13-acetate (PMA) (2.5 μg/mL) and ionomycin (0.5 μg/mL) were used to stimulate T cells together with brefeldin A were added to the culture medium for 2 hours at 37° C. Cell concentration of total lymphocytes from draining lymph node was adjusted to 5×10^6 per mL in 96-well plate. 1 μg/mL OT-1 (OVA 257-264) peptide was added to the wells and stimulated for 96 hours. Samples were stained with CD45 and CD8 on ice for 30 min. Intracellular staining was performed to quantify IFN-γ and granzyme B production.
To explore the effects of SAA treatment on T cell function, SAA treated B16-OVA bearing mice were sacrificed to investigate tumor infiltrating T cell (TILs) function. Firstly, Phorbol-12-myristate-13-acetate (PMA) and ionomycin were used to nonspecifically stimulate tumor infiltrating T cell, then intracellular staining was performed to quantify cytokine (e.g., IFN-γ, granzyme B) production by FACS.

T2 sequence (Q9BYJ9 with tags, fused parts or gaps H528A): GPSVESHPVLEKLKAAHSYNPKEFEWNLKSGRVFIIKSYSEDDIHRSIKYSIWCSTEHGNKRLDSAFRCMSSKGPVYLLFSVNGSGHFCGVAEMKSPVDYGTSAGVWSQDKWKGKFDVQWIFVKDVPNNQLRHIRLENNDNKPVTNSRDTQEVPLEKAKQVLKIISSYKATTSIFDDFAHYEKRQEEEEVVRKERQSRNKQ

O=C(/C=C/c1ccc(O)c(O)c1/C=C/c1ccc(O)c(O)c1)O[C@H](Cc1ccc(O)c(O)c1)C(=O)O [SAA, Salvianolic Acid A]
entropy change ΔS (YTHDF1 (361-559) [1]): 13.6 cal/mol/deg
Kd (YTHDF1 (361-559) [1]; 50 μM YTHDF1 titrated with 1 mM SAA): 5.71 µM
Kd (YTHDF1 (361-559) [2]): 4.7 µM
inhibitory activity against mutant binding to m6A versus wildtype (YTHDF1 mutant H528A): significantly weaker than that against wildtype YTHDF1
proliferation of tumor cells (cell number) (B16-OVA tumor cells): not affected
cytokine (IFN-γ, granzyme B) production by tumor infiltrating T cells [3]: higher level of cytokines than DMSO group
